Results on three molecules are retold here after patent US20250114331A1, “CONCURRENT TARGETING OF ONCOGENIC PATHWAYS TO ENHANCE CHEMOTHERAPY AND IMMUNOTHERAPY” (THE JOHNS HOPKINS UNIVERSITY, priority 2021, published 2025).

One test relates to H1299 xenografts. Description: H1299 xenograft treatment. It counts as in vivo, NSG mice. The settings on record: verteporfin 50 mg/kg i.p. three times a week; S3I-201 5 mg/kg i.p. every day. The text has this:
(§1) For therapeutic experiments, 4- to 5-week-old NOD/SCID/IL2Ry−/− (NSG) mice were obtained from the Johns Hopkins Medical Institute's (Baltimore, MD) animal care facility. We injected H1299 cells (1×106) and H1437 cells (1×106), which were suspended in the mixture as described above, subcutaneously into both flanks. For the patient-derived xenograft (PDX) models, 13 PDX blocks (CTG0162, 0178, 0502, 0848, 1309, 1351, 1358, 1361, 1762, 1885, 2017, 2481, and 2708) were obtained from Champion Oncology. All these PDXs were established from primary lung adenocarcinoma tumors. The tumor tissues were cut into 4×2 mm pieces and implanted in the subcutaneous spaces of both flanks. When tumor volumes reached to 200+50 mm3, mice were randomly assigned to six experimental groups [control, chemo (cisplatin+gemcitabine), chemo+verteporfin, chemo+S3I-201, “all” (cisplatin+gemcitabine+verteporfin+S3I-201), and verteporfin+S3I-201] at 5 mice per group. Cisplatin (Sigma-Aldrich; #P4394), gemcitabine (Medkoo; #100410), S3I-201 (MedKoo; #202541), and verteporfin (Sigma-Aldrich; #1711461) were used to treat the mice. Cisplatin (2.5 mg/kg) and gemcitabine (120 mg/kg) were administrated via intraperitoneal injection once a week (22). […] Each tumor volume was measured every 3 days. Therapeutic efficacy was evaluated from percentage change of the tumor volume compared with the tumor size before treatment.

For test [1], the system named is H1299 and H1437 cells. The test is described as follows: qRT-PCR of YAP1 and STAT3 pathway genes after drug treatment for 72 hours. It counts as cell-based, human. The method, then:
qRT-PCR. The mRNA expression level of each gene was determined by qRT-PCR. […] We quantified the β-actin mRNA level to normalize the expression levels of the targeted genes. Each sample was tested in triplicate and run three times. Each graph shown in our figures indicates the average mRNA expression level of targeted genes compared with the β-actin expression level, with standard error of mean. To determine doses of these drugs that are effective for pathway inhibition, H1299 and H1437 cells were treated with verteporfin or S3I-201 for 72 hours.
In general terms: In qPCR the cycle at which signal appears reflects the starting amount.

Test [2] deals with H1299 and H1437 cells. The test is described as follows: Immunoblotting of YAP1, STAT3 and pSTAT3 after drug treatment. Format: cell-based, human. The method, then:
Western blotting. Cells were dissolved in RIPA buffer (Thermo Fisher Scientific) supplemented with proteinase inhibitor and phosphatase inhibitor cocktails (Roche, Mannheim, Germany). After total protein lysate was electrophoretically transferred onto PVDF membrane, the membrane was blocked with 5% skim milk in 0.05% TBS-Tween buffer and incubated at 4° C. overnight with a primary antibody specific to each protein. The membrane was then probed with an appropriate secondary antibody (Cell Signaling Technology, Danvers, USA). β-actin served as an endogenous control. The primary antibodies and dilution ratios were β-actin (Sigma-Aldrich; #A2228; 1:5000), NANOG (D73G4; Cell Signaling Technology; #4903; 1:1000), OCT4 (D705Z; Cell Signaling Technology; #75463; 1:500), SOX2 (EPR3131; Abcam, Cambridge, UK; #ab92494; 1:500), STAT3 (124H6; Cell Signaling Technology; #9139; 1:2000), pSTAT3 (D3A7; Cell Signaling Technology; #9145; 1:1000) and YAP1 (EP1674Y; Abcam, #ab52771; 1:2000).
To determine doses of these drugs that are effective for pathway inhibition, H1299 and H1437 cells were treated with verteporfin or S3I-201 for 72 hours.

A further test deals with MB49 derived xenograft. The test is described as follows: MB49 derived xenograft treated with STAT3 inhibitor. Format: in vivo, C57BL/6 mice. The settings on record: for expression of CSC associated markers and CXCLs in tumor tissues: qRT-PCR. The method, then:
In vivo xenograft assay and treatment. For in vivo xenograft, cells were suspended in 100 μL of a 1:1 mixture of serum-free DMEM and Cultrex Stem Cell Qualified Reduced Growth Factor Basement Membrane Extract (Trevigen, Gaithersburg, USA), and then injected subcutaneously into the both flanks of C57BL/6 mice for MB49/UPPL595/BBN975 cells.
YAP1 induces immunosuppression partially through IL6/STAT3 signaling and STAT3 inhibition mimics the antitumor activity of YAP1 attenuation. The present inventors recently reported that YAP1 positively regulates IL6/STAT3 signaling (38) in LUAD.

In another test the test system is H1437 xenografts. The test is described as follows: H1437 xenograft treatment. Format: in vivo, NSG mice. The settings on record: verteporfin 50 mg/kg i.p. three times a week; S3I-201 5 mg/kg i.p. every day.
Text: as §1

In test [3] the test system is H1299, H1437 and A549 cells. Description: Apoptosis assay with cisplatin in YAP1-modified cells. Format: cell-based, human. The settings on record: cisplatin 2 or 5 for 72 hours. Here is the method:
Apoptosis assay. Cells were incubated for 72 hours with CDDP (2 μM or 5 μM) or normal saline. Apoptosis assays were conducted using PE Annexin V Apoptosis Detection Kit with 7-AAD (BioLegend, San Diego, USA) according to manufacturer's protocol. Treated cells were analyzed by BD FACSCalibur flow cytometer (BD Biosciences, San Jose, USA).

Test [4] concerns H1299, H1437 and A549 cells. Description: Cell viability assay with cisplatin in YAP1/STAT3-modified cells. Format: cell-based, human. Here is the method: Cell proliferation assay and viability assay. Cell proliferation and viability were evaluated using Cell Counting Kit-8 (Dojindo Molecular Technologies). For cell proliferation assay, after cells (5×10^3/well) were seeded into 96-well plates with RPMI1640 containing 2% FBS, the optical density of each well was measured every 24 hours for 4 days. We added […] of cell counting kit-8 solution to each well 2 hours before measuring the absorbance (17). For the cell viability assay, after cells were incubated for 48 hours (5×10^3/well), they were exposed to each respective therapeutic agent for 72 hours. Cell viability for each agent was defined as the ratio of absorbance values of the treated cells to control cells (i.e., pharmacologically untreated or genetically unmodified). Absorbance values (450-630 nm) were measured by a Spectra Max 250 96-well Plate Reader (Molecular Devices). Each sample was applied to six wells, and their average rate was calculated. The therapeutic agents used here (in vitro) were cisplatin (Sigma-Aldrich; #P4394), S3I-201 (Santa Cruz Biotechnology; #sc-204304; ref. 18), and verteporfin (MedKoo; #203120).

Another test has as its system pSTAT3. Description: Recombinant IL6 stimulation (Western blotting). As to conditions: H1299 and H1437 YAP1-sh cells, 0.1, 1, or 10 ng/mL. It counts as cell-based, human. Here is the method:
Recombinant IL6 stimulation and neutralization of IL6. For exogenous IL6 stimulation, 5×10^5 cells were seeded in 10-cm dishes. After 48 hours, human recombinant IL6 (0.1, 1, or 10 ng/mL) from PeproTech was added to the cells. They were harvested after 48-hour incubation. To neutralize the IL6, Human/Primate IL6 Antibody (R&D Systems) was administered. We cultured 5×10^5 cells in 10-cm dishes. After 48 hours, antibody (1 mg/mL) was added to the cells. They were then harvested after 24 or 48 hours. Protein expression of each sample was evaluated by Western blotting.
In general terms: In western blotting, separated proteins are transferred to a membrane and probed.

Entries after “also recorded” stand apart in the source; their conditions may differ.

`Cc1ccc(S(=O)(=O)OCC(=O)Nc2ccc(C(=O)O)c(O)c2)cc1` [S3I-201]: the tumor growth entry in the test on H1299 xenografts is “inhibited growth”; in the test on MB49 derived xenograft (mouse, in vivo), “significant regression of the tumor growth”; in the test with H1437 xenografts, “did not significantly affect tumor growth”. Besides, in the test on H1299 and H1437 cells [1], the “mRNA expression of STAT3 and its targeted genes NRP1 and PROS1” value was “suppressed both STAT3 and its targeted genes; also recorded: inhibited mRNA expressions of not only NRP1 and PROS1 (STAT3-targeting genes) but also STAT3”. Further, the pSTAT3 expression entry with H1299 and H1437 cells [2] was “suppressed pSTAT3 without affecting YAP1 or total STAT3 expressions; also recorded: suppressed pSTAT3 in a dose-dependent manner”. Also, in the test on MB49 derived xenograft (mouse, in vivo), the “infiltration of MDSCs (GR-1) and CD8+ T cells in the TME, IHC” value is “decreased infiltration of MDSCs (GR-1) and significantly more CD8+ T cells”. Moreover, the “expression of CSC associated markers and CXCLs in tumor tissues” value is “downregulate different CXCR2 associated ligands” in the test with MB49 derived xenograft (listed as STAT3 inhibitor); “significantly decreased expression of CSC associated markers and CXCLs” in the test on MB49 derived xenograft (listed as STAT-3 inhibitor).

Consider `N.N.[Cl][Pt][Cl]` [cisplatin], for which the cells undergoing apoptosis entry in test [3] (YAP1-LV cells versus control cells) is on record as “lower fractions; also recorded: substantially less apoptosis”; in test [3] (YAP1-sh cells versus control cells), “higher fractions of apoptotic cells; also recorded: greater percentages of cells undergoing apoptosis”. Besides, the “sensitivity to cisplatin (cell viability)” value in test [4] (A549 YAP1-LV cells versus control cells, 72 hours) was “relatively resistant; also recorded: higher resistance”; in test [4] (A549 YAP1-LV/STAT3-si cells versus YAP1-LV/STAT3-Ctrl cells), “restored cisplatin sensitivity”; in test [4] (H1299 and H1437 YAP1-sh cells versus control cells, 72 hours) it was “increased sensitivities; also recorded: greater sensitivity”; in test [4] (YAP1-sh/STAT3-LV cells (H1299 and H1437) versus YAP1-sh/STAT3-Ctrl cells, 72 hours, 5 cisplatin) it was “restored cell proliferation and cisplatin resistance; also recorded: less sensitivity”; in test [4] (YAP1-sh/STAT3-si cells (H1299 and H1437) versus single inhibition or control), “greater sensitivity; also recorded: highest sensitivity”.

On to “IL6: human recombinant IL6 from PeproTech”, for which the figures for the pSTAT3 level entry with pSTAT3 and in the test on pSTAT3 (listed as recombinant human IL6) were “increased pSTAT3 expressions in a dose-dependent manner” and “increased pSTAT3 levels dose dependently”, respectively.
